Experimental data: patent publication US9993478B2, “1-pyrazolyl-3-(4-((2-anilinopyrimidin-4-yl) oxy) napththalen-1-yl) ureas as P38 MAP knase inhibitors” (Respivert Ltd., priority 2011, dated 2018)

Tested on: d-U937 cells
Assay: Cell viability: MTT assay
Type: cell-based, human
Settings: 1 μg/mL
Method: Differentiated U937 cells were pre-incubated with each test compound (final concentration 1 μg/mL or 10 μg/mL in 200 μL media indicated below) under two protocols: the first for 4 hr in 5% FCS RPMI1640 media and the second in 10% FCS RPMI1640 media for 24 h. The supernatant was replaced with new media (200 μL) and MTT stock solution (10 μL, 5 mg/mL) was added to each well. After incubation for 1 hr the media were removed, DMSO (200 μL) was added to each well and the plates were shaken lightly for 1 hr prior to reading the absorbance at 550 nm. The percentage loss of cell viability was calculated for each well relative to vehicle (0.5% DMSO) treatment. Consequently an apparent increase in cell viability for drug treatment relative to vehicle is tabulated as a negative percentage.

Row | Structure (SMILES) | MTT Assay Cell viability at time point in d-U937 Cells 4 h | MTT Assay Cell viability at time point in d-U937 Cells 24 h
1 | Cc1ccc(-n2nc(C(C)(C)C)cc2NC(=O)Nc2ccc(Oc3ccnc(Nc4ccc(O)cc4C)n3)c3ccccc23)cc1 [Example 24, 1-(3-(tert-butyl)-1-(p-tolyl)-1H-pyrazol-5-yl)-3-(4-((2-((4-hydroxy-2-methylphenyl)amino)pyrimidin-4-yl)oxy)naphthalen-1-yl)urea] | −ve (−ve and +ve indicate the value is below and above respectively, the no significant effect threshold defined as 30% inhibition at 1 μg/mL at the time point indicated) | −ve (−ve and +ve indicate the value is below and above respectively, the no significant effect threshold defined as 30% inhibition at 1 μg/mL at the time point indicated)
2 | COc1ccc(Nc2nccc(Oc3ccc(NC(=O)Nc4cc(C(C)(C)C)nn4-c4ccc(C)cc4)c4ccccc34)n2)cc1 [Example 17, 1-(3-(tert-butyl)-1-(p-tolyl)-1H-pyrazol-5-yl)-3-(4-((2-((4-methoxyphenyl)amino)pyrimidin-4-yl)oxy)naphthalen-1-yl)urea] | −ve (−ve and +ve indicate the value is below and above respectively, the no significant effect threshold defined as 30% inhibition at 1 μg/mL at the time point indicated) | −ve (−ve and +ve indicate the value is below and above respectively, the no significant effect threshold defined as 30% inhibition at 1 μg/mL at the time point indicated)
3 | Cc1ccc(-n2nc(C(C)(C)C)cc2NC(=O)Nc2ccc(Oc3ccnc(Nc4ccc(O)cc4F)n3)c3ccccc23)cc1 [Example 30, 1-(3-(tert-butyl)-1-(p-tolyl)-1H-pyrazol-5-yl)-3-(4-((2-((2-fluoro-4-hydroxyphenyl)amino)pyrimidin-4-yl)oxy)naphthalen-1-yl)urea] | −ve (−ve and +ve indicate the value is below and above respectively, the no significant effect threshold defined as 30% inhibition at 1 μg/mL at the time point indicated) | −ve (−ve and +ve indicate the value is below and above respectively, the no significant effect threshold defined as 30% inhibition at 1 μg/mL at the time point indicated)
4 | COc1cc(Nc2nccc(Oc3ccc(NC(=O)Nc4cc(C(C)(C)C)nn4-c4ccc(C)cc4)c4ccccc34)n2)ccc1O [Example 25, 1-(3-(tert-butyl)-1-(p-tolyl)-1H-pyrazol-5-yl)-3-(4-((2-((4-hydroxy-3-methoxyphenyl)amino)pyrimidin-4-yl)oxy)naphthalen-1-yl)urea] | −ve (−ve and +ve indicate the value is below and above respectively, the no significant effect threshold defined as 30% inhibition at 1 μg/mL at the time point indicated) | −ve (−ve and +ve indicate the value is below and above respectively, the no significant effect threshold defined as 30% inhibition at 1 μg/mL at the time point indicated)
5 | Cc1ccc(-n2nc(C(C)(C)C)cc2NC(=O)Nc2ccc(Oc3ccnc(Nc4ccc(C)c(O)c4)n3)c3ccccc23)cc1 [Example 26, 1-(3-(tert-butyl)-1-(p-tolyl)-1H-pyrazol-5-yl)-3-(4-((2-((3-hydroxy-4-methylphenyl)amino)pyrimidin-4-yl)oxy)naphthalen-1-yl)urea] | −ve (−ve and +ve indicate the value is below and above respectively, the no significant effect threshold defined as 30% inhibition at 1 μg/mL at the time point indicated) | −ve (−ve and +ve indicate the value is below and above respectively, the no significant effect threshold defined as 30% inhibition at 1 μg/mL at the time point indicated)
